Measurements published in PMC9246256, “Structure-based optimization of type III indoleamine 2,3-dioxygenase 1 (IDO1) inhibitors” (Journal of Enzyme Inhibition and Medicinal Chemistry, 2022).
pIC50: −log10 of the molar value. Where “and” joins values, the source holds several entries; their conditions need not be identical. Identical values can stand only once. Like-named read-outs stand apart in the source and are kept apart here.

Tests used:
[1] = molecular target: T1, purified recombinant IDO1 (Homo sapiens, UniProt P14902); test: Enzymatic IDO1 inhibition assay (ascorbate/methylene blue reduction system, HPLC detection of kynurenine); assay type: biochemical; settings: for pIC50: enzymatic, L-Trp 100 µM, 0.01% Triton X-100, 5% DMSO, 20 min at room temperature, pH 6.5, duplicates, read-out: IC50 [ μ M] (SD); for LE [kcal/mol/HA]: ligand efficiency, LE = -RT log(IC50)/number of heavy atoms, from enzymatic IC50
T1 construct: Full-length human IDO1 gene was cloned into the pET-28a vector; inferred from pET-28a vector and HisTrap purification; made in house; host or cells: E. coli Rosetta (DE3)
Experimental: Enzymatic IC50 values were measured with the ascorbate/methylene blue reduction system[85] in presence of a non-ionic detergent to reduce compound aggregation as described before[28]. Kynurenine and L-Trp concentrations were determined by HPLC through UV detection.
Full-length human IDO1 gene was cloned into the pET-28a vector and expressed in E. coli Rosetta (DE3) cells. […] The culture was harvested and frozen at −80 °C until further use. The frozen cells were lysed by sonication in 20 mM Tris pH 7, 400 mM NaCl, 1 mM MgCl2, 20 mM imidazole, 1 mM DTT, 0.5 mg/mL Lysozyme and Protease inhibitor. After centrifugation, the supernatant was loaded into a HisTrap HP column pre-equilibrated with buffer containing 20 mM Tris pH 7, 500 mM NaCl and 20 mM imidazole, and eluted with the same buffer containing 500 mM imidazole. Fractions containing IDO1 were pooled, concentrated, and injected on a size exclusion chromatography column (HiLoad Superdex S75 16/60) to increase purity. hIDO1 fractions were concentrated to 20 mg/mL in 20 mM Tris pH 7 and 150 mM NaCl.
The enzymatic inhibition assays were performed as described by Takikawa et al.[130] with some modifications. Briefly, the reaction mixture (100 µL) contained potassium phosphate buffer (100 mM, pH 6.5) ascorbic acid (20 mM), catalase (400 units/mL), methylene blue (10 µM), purified recombinant IDO1 (2.5 ng/µL), L-Trp (100 µM), Triton X-100 (0.01%) and DMSO (5 µL). The inhibitors were serially diluted 3-fold for at least 8 different concentrations. After incubation at room temperature for 20 min, the reaction was stopped in its linear phase by addition of trichloroacetic acid solution (40 mL, 30% w/v), and the samples were incubated at 50 °C for 30 min. After centrifugation, 80 µl of supernatant from each well were used for HPLC analysis. The mobile phase for HPLC analysis was composed of 50% (v/v) of methanol and 50% of sodium citrate buffer (40 mM, pH 2.4) containing 400 µM sodium dodecyl sulphate. […] All assays were carried out in duplicates. The activity (Act) of each compound was calculated as Act = RT log(IC50) in analogy to the relation between the binding free energy and the Ki value. The ligand efficiency (LE) was calculated as LE = −Act/NHA, where NHA is the number of non-hydrogen atoms (heavy atoms) in the compound.

hIDO1 [2] = molecular target: T2, hIDO1 (Homo sapiens, UniProt P14902); test: Cellular hIDO1 inhibition (kynurenine production) in transiently transfected HEK 293 T cells; assay type: cell-based
T2 construct: The full ORF of hIDO1 was cloned into the mammalian expression vector pcDNA6/myc-His; myc-His (vector-encoded); host or cells: HEK 293 T
Experimental: (§1) We tested the cellular hIDO1 inhibitory activity and toxicity of 30 active compounds at a single concentration (Figure 6 and Table 8). As some of the aniline derivatives reacted with Ehrlich’s reagent (p-dimethylaminobenzaldehyde, p-DMAB) used to quantify kynurenine, the kynurenine content of these samples was determined by HPLC. To be able to detect also weak inhibition, compounds were tested at the high concentration of 200 µM (Figure 6A and B, filled bars), except for less soluble compounds (52, 148, 149 and 153), which were tested at a concentration of 50 µM (Figure 6A and B, empty bars).
The cDNA encoding hIDO1 (NCBI, NM 0021464.3) was purchased from Origene as pCMV6-Entry vector (RC206592). The full ORF of hIDO1 was cloned into the mammalian expression vector pcDNA6/myc-His from Invitrogen. Human embryonic kidney 293 T (HEK 293 T) cells were transiently transfected with the plasmid construct encoding hIDO1. A 75 cm^2 flask containing HEK 293 T cells at a confluency of 70% was transfected with jetPEI DNA transfection reagent (Polyplus-transfection), according to manufacturer’s protocol. A total of 20 µg of pcDNA-IDO1 along with 5 µg of pcDNA-GFP plasmid were used for the transfection; GFP was used to evaluate transfection efficiency prior to the cellular assays. 16–18 h post-transfection the 293 T cells were detached with trypsin, centrifuged, and re-suspended in 25 mL of DMEM medium without phenol red, supplemented with penicillin and streptomycin, 10% foetal bovine serum and 1 mM pyruvate (Gibco). Subsequently, 100 µL of cells were distributed to each well of two 96-well round-bottom plates that had been pre-loaded with 100 µL DMEM and the small organic test molecule in DMSO (for a final DMSO concentration of 2%). DMEM medium contains 78 µM L-Trp and was supplemented with 500 µM of L-Trp. Cells transfected with hIDO1 were incubated for 7 h at 37 °C in a CO2 incubator. The reaction was stopped in its linear phase by adding trichloroacetic acid (TCA) to the medium at a final concentration of 4%. Plates were centrifuged for 15 min at 4,000 rpm. 100 µL of supernatant was added to 100 µL of 2% (w/v) DMAB in glacial acetic acid. After 10 min the absorbance was measured at a wavelength of 480 nm to detect kynurenine formation. Alternatively, kynurenine content was determined by HPLC as done for the enzymatic assay.

HEK 293 T cells [3] = test: Cell viability / cellular toxicity (DAPI staining, cytometry); assay type: cell-based, human; settings: compound 200 µM, 7 h
Experimental: as §1
Following DMSO (negative control) or inhibitor treatments, apoptotic cells were detected by 4′,6-diamidino-2-phenylindole (DAPI) staining. Briefly, after 7 h of incubation, cells were washed with PBS, resuspended in PBS with 1 µg/mL DAPI and immediately analysed using a BD LSR II cytometer. A 405 nm laser with 450/50 nm bandpass filter was used to collect data.

hIDO1 [4] = molecular target: T2, hIDO1; settings: previously determined, cited from earlier work; for Inh. [%]: 200 µM
HEK 293 T cells [5] = settings: previously determined, 200 µM, cited from earlier work
[6] = ref 1 of Supporting Information (Röhrig et al. 2021)
[7] = ref 3 of Supporting Information (Röhrig et al. 2016)
[8] = ref 3 of Supporting Information (= main text ref 62)

T2 sequence (P14902 whole entry): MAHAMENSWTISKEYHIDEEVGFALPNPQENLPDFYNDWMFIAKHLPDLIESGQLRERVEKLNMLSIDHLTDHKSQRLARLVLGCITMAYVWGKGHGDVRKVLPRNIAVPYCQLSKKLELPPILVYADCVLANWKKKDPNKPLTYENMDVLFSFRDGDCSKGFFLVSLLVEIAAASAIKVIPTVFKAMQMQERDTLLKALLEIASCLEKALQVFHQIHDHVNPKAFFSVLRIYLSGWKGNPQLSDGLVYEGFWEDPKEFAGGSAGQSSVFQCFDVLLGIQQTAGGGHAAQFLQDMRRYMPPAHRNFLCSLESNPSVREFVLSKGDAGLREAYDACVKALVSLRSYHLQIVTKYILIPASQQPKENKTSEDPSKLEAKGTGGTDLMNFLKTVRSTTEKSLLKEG
T1 sequence (P14902 whole entry): as above

| SMILES | pIC50 [1] | LE [kcal/mol/HA] [1] [kcal/mol/HA] | melting point [°C] | further results |
| --- | --- | --- | --- | --- |
| CNc1ccc(Cl)cc1-c1nc[nH]n1 [Compound 145, 4-Chloro-N-methyl-2-(1H-1,2,4-triazol-3-yl)aniline] | 5.07 and 5.06 | 0.49 | 207 to 209 | inhibition at 200 µM (hIDO1 [2]): 93%; Tox. [%] (HEK 293 T cells [3]): 0 (0) % |
| Oc1ccc(Cc2ccccc2)cc1-c1cnn[nH]1 [Compound 38, 4-Benzyl-2-(1H-1,2,3-triazol-5-yl)phenol] | 4.06 | 0.29 | 148 to 151 | – |
| O=C(c1ccccn1)c1cnn[nH]1 [Compound 120, Pyridin-2-yl(1H-1,2,3-triazol-5-yl)methanone] | < 3.00 | – | 161 to 163 | – |
| c1ccc(CCOc2ccccc2-c2c[nH]nn2)cc1 [Compound 26, 4–(2-Phenethoxyphenyl)-1,2,3-triazole] | < 4.00 | – | 91 to 93 | – |
| Clc1cccc(-c2nnc[nH]2)c1 [Compound 136] | – | 0.51 | – | Inh. [%] (hIDO1 [4]; [6]): 78%; Tox. [%] (HEK 293 T cells [5]; [6]): 0% |
| c1ccc(-c2nnc[nH]2)cc1 [Compound 133] | – | – | – | Inh. [%] (hIDO1 [4]; [6]): 0%; Tox. [%] (HEK 293 T cells [5]; [6]): 0% |
| O=C(c1csnn1)c1cnn[nH]1 [Compound 119, (1,2,3-Thiadiazol-4-yl)(1H-1,2,3-triazol-5-yl)methanone] | 3.29 | 0.37 | 170 to 172 | inhibition at 200 µM (hIDO1 [2]): 4.8%; Tox. [%] (HEK 293 T cells [3]): 0 (0) % |
| c1ccc(CCNc2ccccc2-c2cnn[nH]2)cc1 [Compound 28] | < 3.60 | – | 129 to 132 | – |
| Clc1cccc(-c2cnn[nH]2)c1/C=C/c1ccccc1 [Compound 41] | 4.31 | 0.29 | – | Inh. [%] (hIDO1 [4]; [7]): 32%; Tox. [%] (HEK 293 T cells [5]; [8]): 58% |
| Nc1ccc(Cl)cc1-c1nnc[nH]1 [Compound 11] | – | 0.78 | – | Inh. [%] (hIDO1 [4]; [6]): 100%; Tox. [%] (HEK 293 T cells [5]; [6]): 0% |
| OC(COc1ccccc1-c1cnn[nH]1)c1ccccc1 (stereo not drawn) [Compound 27, 2–(2-(1H-1,2,3-triazol-5-yl)phenoxy)-1-phenylethan-1-ol] | < 3.30 | – | 153 to 155 | – |
| Cc1ccc(O)c(-c2cnn[nH]2)c1 [Compound 35, 4-Methyl-2-(1H-1,2,3-triazol-5-yl)phenol] | 6.26 | 0.66 | 160 to 162 | – |
| O=C(c1ccncc1)c1cnn[nH]1 [Compound 122, Pyridin-4-yl(1H-1,2,3-triazol-5-yl)methanone] | 2.92 | – | 221 to 223 | – |
| CCc1ccc(O)c(-c2cnn[nH]2)c1 [Compound 36, 4-Ethyl-2-(1H-1,2,3-triazol-5-yl)phenol] | 6.60 | 0.64 | 71 to 73 | – |
| Clc1cc(Cl)c(-c2c[nH]nn2)c(Cl)c1 [Compound 53, 4–(2,4,6-Trichlorophenyl)-1,2,3-triazole] | < 3.30 | – | 236 to 238 | – |
| O=C(c1cnn[nH]1)c1cc(Cl)ccc1O [Compound 111, (5-Chloro-2-hydroxyphenyl)(1H-1,2,3-triazol-5-yl)methanone] | 3.44 and 3.43 | 0.31 | 186 to 188 | inhibition at 200 µM (hIDO1 [2]): 20%; Tox. [%] (HEK 293 T cells [3]): 0 (0) % |
| Nc1ccc(Cl)c(N)c1-c1nc[nH]n1 [Compound 157, 4-Chloro-2-(1H-1,2,4-triazol-3-yl)benzene-1,3-diamine] | 6.00 | 0.55 | 212 to 214 | – |

| SMILES | pIC50 [1] | LE [kcal/mol/HA] [1] [kcal/mol/HA] | melting point [°C] | further results |
| --- | --- | --- | --- | --- |
| Oc1cccc(O)c1-c1cnn[nH]1 [Compound 44, 2-(1H-1,2,3-triazol-5-yl)benzene-1,3-diol] | 4.89 | 0.51 | 257 to 259 | – |
| Clc1cccc(-c2cnn[nH]2)c1CCC1CCCC1 [Compound 40] | 5.02 | 0.36 | – | Inh. [%] (hIDO1 [4]; [7]): 71%; Tox. [%] (HEK 293 T cells [5]; [8]): 22% |
| Oc1ccc(F)cc1-c1cnn[nH]1 [Compound 34, 4-Fluoro-2-(1H-1,2,3-triazol-5-yl)phenol] | 6.85 | 0.72 | 186 to 188 | – |
| Clc1cccc(-c2cnn[nH]2)c1 [Compound 30] | – | 0.73 | – | Inh. [%] (hIDO1 [4]; [6]): 95%; Tox. [%] (HEK 293 T cells [5]; [6]): 0% |
| Oc1ccccc1-c1cnn[nH]1 [Compound 29] | – | 0.64 | – | Inh. [%] (hIDO1 [4]; [6]): 95%; Tox. [%] (HEK 293 T cells [5]; [6]): 0% |
| Clc1cccc(-c2cnn[nH]2)c1Cl [Compound 47] | – | 0.49 | – | IC50 (hIDO1 [4]; ref 4 of Supporting Information (Röhrig et al. 2012), read-out: IC50 [µM] (cellular)): > 100 µM |
| CCC(=O)Nc1ccc(Cl)cc1-c1nc[nH]n1 [Compound 147, N-(4-Chloro-2-(1H-1,2,4-triazol-3-yl)phenyl)propionamide] | 5.92 | 0.47 | 168 to 171 | inhibition at 200 µM (hIDO1 [2]): 100%; Tox. [%] (HEK 293 T cells [3]): 16 (1) % |
| c1ccc(-c2cnn[nH]2)cc1 [Compound 19] | – | – | – | Inh. [%] (hIDO1 [4]; [6]): 93%; Tox. [%] (HEK 293 T cells [5]; [6]): 3% |
| Nc1c(Cl)cccc1-c1nc[nH]n1 [Compound 141, 2-Chloro-6-(1H-1,2,4-triazol-3-yl)aniline] | 4.54 | 0.48 | – | inhibition at 200 µM (hIDO1 [2]): 82%; Tox. [%] (HEK 293 T cells [3]): 13 (4) % |
| Cc1[nH]nnc1-c1cc(Cl)ccc1O [Compound 68, 4-Chloro-2–(5-methyl-1,2,3-triazol-4-yl)phenol] | 3.66 | 0.36 | 149 to 151 | – |
| O=C(c1cscn1)c1cnn[nH]1 [Compound 118, Thiazol-4-yl(1H-1,2,3-triazol-5-yl)methanone] | 4.09 | 0.46 | – | inhibition at 200 µM (hIDO1 [2]): 17%; Tox. [%] (HEK 293 T cells [3]): 0 (0) % |
| O=C(c1cnn[nH]1)c1ccc(Br)cc1O [Compound 113, (4-Bromo-2-hydroxyphenyl)(1H-1,2,3-triazol-5-yl)methanone] | 5.09 | 0.46 | 192 to 194 | inhibition at 200 µM (hIDO1 [2]): 36%; Tox. [%] (HEK 293 T cells [3]): 0 (0) % |
| Clc1cccc(-c2c[nH]nn2)c1OCCc1ccccc1 [Compound 43, 4–(3-Chloro-2-phenethoxyphenyl)-1,2,3-triazole] | 4.51 | 0.29 | 96 to 99 | – |
| Cc1c(Cl)ccc(N)c1-c1nc[nH]n1 [Compound 156, 4-Chloro-3-methyl-2-(1H-1,2,4-triazol-3-yl)aniline] | 4.05 | 0.39 | 208 to 210 | – |
| CC(=O)Nc1ccc(Cl)cc1-c1nc[nH]n1 [Compound 146, N-(4-Chloro-2-(1H-1,2,4-triazol-3-yl)phenyl)acetamide] | 3.37 and 3.38 | 0.29 | – | inhibition at 200 µM (hIDO1 [2]): 89%; Tox. [%] (HEK 293 T cells [3]): 0 (0) % |
| CCCc1ccc(O)c(-c2cnn[nH]2)c1 [Compound 37, 4-Propyl-2-(1H-1,2,3-triazol-5-yl)phenol] | 6.12 | 0.56 | 138 to 140 | – |
